Measurements taken from patent US7118745B1, “Engineering antibodies that bind irreversibly” (The Regents of the University of California, priority 1999, dated 2006).

How the values were obtained:
[1] = molecular target: human serum albumin (Homo sapiens, UniProt P02768); experiment: Stability of 111In-labeled bifunctional chelates incubated with human serum albumin (TLC); format: in vitro ADME; details: after 20 hrs; 20 mM Hepes, pH 7.4, 37° C.; 1 mM free sulfhydryl as human serum albumin
Procedure: The electrophilic chelates AABE, CABE, BABE were labeled with indium-111 and incubated in a Hepes buffered solution at physiological pH and temperature (20 mM Hepes, pH 7.4, 37° C.) containing 1 mM free sulfhydryl groups in the form of human serum albumin-approximating the concentration of thiols in plasma.
The reactive chelates 5–7 and aminobenzyl-EDTA (“ABE”) were labeled with ^111In and analyzed by TLC (50:50 Methanol/10% NaOAc pH8.2) to show complete chelation. To 0.5 mL of human serum albumin solution was added 2 μl of one of the labeled chelates. […] The vials were mixed by manual agitation, and 2 μl was removed and analyzed by TLC.
The fraction unreacted is plotted versus incubation time in FIG. 6. After 20 hrs, >95% of the In-AABE and In-CABE molecules were unreacted, while most of the In-BABE was attached to albumin. This confirmed the expectation that AABE and CABE are stable, and are good candidates for pretargeting. We infer that these chelates should be unreactive in blood for the length of time needed for pretargeting (40 min–4 hrs); if not, many other choices are available.

[2] = tested on: native antibody CHA255; experiment: Control incubation of chelates with native antibody CHA255 (covalent labeling); format: biochemical, mouse; details: indium chelates incubated with native antibody; BABE: after several hours
Procedure: As a control, the same chelates were incubated with native antibody CHA255, to see if they would covalently label it.

[3] = tested on: S95C Fab light chain; experiment: Covalent cross-linking of 111In-labeled chelates to S95C Fab in culture medium (SDS-PAGE, phosphorimage); format: biochemical, mouse/human chimeric; details: 111In-labeled chelate, culture medium containing S95C mutant, 30 minutes
Procedure: FIG. 18 is a phosphorimage of a 15% SDS-PAGE gel of samples incubated 30 minutes at 37° C. Chelates (CABE, CpABE, AABE, ABE) are in lanes 1–4, along with culture medium containing the S95C mutant. The (radiolabeled) band (at 26 kDa) in lane 1 is the crosslink between CABE (our positive control) and S95C Fab light chain. […] No crosslinks are observed with the non-nucleophilic native Fab, nor with the N96C mutant.
100 μl of complete culture medium from S2 cultures expressing each of the CHA255 Chimeric Fabs was mixed with 5 μl of 100 mM DOTA to sequester Cu^2+ from induction of expression. Each chelate was loaded with ^111In as previously described with a specific activity of 200 μCi. Complete metallation was analyzed by TLC as described previously. Specifically, 1 μl of chelate was added to 2.8 μl of 0.1 M citrate buffer (pH 5.5) to which was added 1.2 μl of carrier free ^111In (Nordion) ([…]) and the chelate was analyzed by TLC. 4 μl of loaded chelate was added to the 105 μl of Fab-DOTA in medium. This solution was incubated for 30 min. at room temperature. The reaction was stopped by separation of excess chelate by gel filtration spin chromatography (Penefsky column). 20 μl of eluant was added to 5 μl of sample application buffer containing β-mercaptoethanol (5×SDS PAGE SAB), boiled and reduced for 10 min. at 95° C. This was loaded onto a 1020% SDS-Page gel and electrophoriesed for 1 hr at 200V. The gel was fixed and dried via standard protocols and then exposed to a phosphorimager plate for 12 h. The plate was visualized with a Storm 640 phosphorimager (Molecular Dymanics).
In-labeled electrophilic chelates were incubated in Fab-containing culture medium to investigate whether either of the mutant antibodies would bind irreversibly to its target. Serum-containing culture medium was used as a representation of typical biological media. […] We incubated ^111In-labeled chelates bearing electrophilic acrylamido, chloroproprionamido, or chloroacetamido groups at physiological pH and temperature with raw tissue culture medium from the cells expressing the recombinant antibodies. As a control, an ^111In-labeled chelate bearing the non-electrophilic amino group was also included. At various times after addition of the radioactive chelates, we removed samples from the incubation and applied them to a gel filtration spin column to remove excess radiolabeled chelate.
The samples were analyzed by SDS-PAGE and visualized by phosphorimager. Separation under reducing and denaturing conditions on SDS-PAGE will separate the light chain from the heavy chain of each Fab, functionally destroying the antibody-binding pocket.

human serum albumin, sequence (P02768 25-609): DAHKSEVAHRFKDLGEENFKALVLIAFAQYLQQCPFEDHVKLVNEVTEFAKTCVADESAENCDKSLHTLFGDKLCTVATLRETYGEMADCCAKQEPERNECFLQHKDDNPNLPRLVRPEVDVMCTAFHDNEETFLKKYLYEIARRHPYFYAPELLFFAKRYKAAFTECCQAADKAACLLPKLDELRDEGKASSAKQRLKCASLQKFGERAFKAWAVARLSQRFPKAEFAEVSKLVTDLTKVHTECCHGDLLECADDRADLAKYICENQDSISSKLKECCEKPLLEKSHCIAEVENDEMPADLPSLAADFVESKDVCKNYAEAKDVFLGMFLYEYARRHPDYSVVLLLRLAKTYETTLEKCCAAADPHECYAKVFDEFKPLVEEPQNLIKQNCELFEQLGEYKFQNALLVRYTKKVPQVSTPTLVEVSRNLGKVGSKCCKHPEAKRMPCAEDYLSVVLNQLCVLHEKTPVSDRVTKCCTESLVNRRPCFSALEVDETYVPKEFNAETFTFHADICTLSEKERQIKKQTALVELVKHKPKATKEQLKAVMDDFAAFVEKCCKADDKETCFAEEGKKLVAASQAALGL

| Compound | chelate attached to albumin [1] | covalent attachment to native CHA255 [2] | crosslink of chelate with S95C Fab light chain (radiolabeled 26 kDa band) [3] | crosslink of chelate with S95C Fab light chain (radiolabeled 26 kDa band) ([3]; listed as In-AABE) | crosslink of chelate with S95C Fab light chain (radiolabeled 26 kDa band) ([3]; listed as In-CABE) |
| --- | --- | --- | --- | --- | --- |
| O=C(O)CN(CC(=O)O)CC(Cc1ccc(NC(=O)CBr)cc1)N(CC(=O)O)CC(=O)O (stereo not shown) [BABE, bromoacetylamidobenzyl] | most | did react to some degree | – | – | – |
| C=CC(=O)Nc1ccc(CC(CN(CC(=O)O)CC(=O)O)N(CC(=O)O)CC(=O)O)cc1 (stereo not shown) [AABE, Acrylamidobenzyl-EDTA] | – | did not covalently attach | 26 kDa band | reacted equally well | – |
| O=C(O)CN(CC(=O)O)CC(Cc1ccc(NC(=O)CCl)cc1)N(CC(=O)O)CC(=O)O (stereo not shown) [CABE, chloroacetylamidobenzyl] | – | did not covalently attach | crosslink | – | reacted equally well |
| Nc1ccc(CC(CN(CC(=O)O)CC(=O)O)N(CC(=O)O)CC(=O)O)cc1 (stereo not shown) [ABE, aminobenzyl-EDTA, reference compound] | – | did not covalently attach | does not show crosslinks | – | – |
